{"source": "paper PMC6530361", "about": "“Anti-tumor Efficacy Assessment of the Sigma Receptor Pan Modulator RC-106. A Promising Therapeutic Tool for Pancreatic Cancer” (Frontiers in Pharmacology, 2019)", "key": {"[1]": {"tested_on": "Panc-1, Capan-1, and Capan-2", "assay": "MTS assay, all cell lines tested", "assay_type": "cell-based", "settings": "24, 48, and 72 h exposure", "method": "Pancreatic adenocarcinoma Panc-1, Capan-1, and Capan-2, cell lines were purchased by the ATCC. All cell lines were grown in culture medium composed of DMEM/Ham’s F12 (1:1; Euroclone) supplemented with fetal calf serum (10%; Euroclone), glutamine (2 mM; Euroclone), and insulin (10 μg/mL; Sigma-Aldrich, St. Louis, MO, United States). All experiments were performed on cells in the exponential growth phase and checked periodically for mycoplasma contamination by MycoAlert^TM Mycoplasma Detection Kit (Lonza, Basel, Switzerland).\nCytotoxicity was assayed using CellTiter 96® AQueous One Solution Cell Proliferation Assay (Promega, Milan, Italy). Cells were seeded onto a 96-well plate at a density of 3 × 10^3 cells per well. Cell lines were exposed to increasing concentrations of the drug, ranging from 0.1 to 100 μM. The effect of the drug was evaluated after 24, 48, and 72 h of continued exposure. Two independent experiments were performed in octuplicate. The OD of treated and untreated cells was determined at a wavelength of 490 nm using a […].\nDose response curves were created by Excel software. IC50 values were determined graphically from the plot."}, "[2]": {"tested_on": "proteasome activity of PANC-1, Capan-1, and Capan-2", "assay": "Proteasome activity assay, all cell lines", "assay_type": "cell-based", "settings": "20–100 μM, 24 h, all PC cell lines", "method": "Cells were seeded in 6-well plates at density of 250 × 10^3 cells/well. Cells were treated with increasing concentration of RC-106 and after 24 h total protein extracts were obtained: cells were washed 2 times with PBS and lysed with 100 μL of lysis buffer (Hepes 5 mM pH 7.5, NaCl 150 mM, Glycerol 10%, Triton X100 1%, MgCl2 1.5 mM, EGTA 5 mM). Protein concentration of samples was quantified using Bradford method. Proteasome activity was quantified as described below. Proteasome solution was composed by 40 μg of proteins, 10 μL of 10X proteasome buffer (Hepes pH 7.5 250 mM, EDTA pH 8.0 5 mM, NP-40 0.5%, SDS 0.01%) and 10 μL of 10 mM proteasome substrate (N-Succinyl-Leu-Leu-Val-Tyr-7-Amido-4-Methylcoumarin, 7.6 mg/mL; Sigma-Aldrich, United States). 100 μL of proteasome solution was loaded in wells of a black 96-well plate. The plate was then incubated at 37°C for 2 h and the fluorescence was measured in a microplate reader (excitation 380 nm, emission 460 nm; BMG-Labtech, Germany)."}, "[3]": {"assay": "In vivo pancreas distribution study", "parameters": "species or system male CD-1 mice", "settings": "male, CD-1, mouse, ip, mice", "method": "The experiments were performed in agreement with the Italian Law D. L.vo 4 marzo 2014, n. 26. The treatments involved male CD-1 mice and a unique number on the tail identified each animal. Mice were housed, in groups of four, in cages suitable for the species. After 5 days of adaptation to the local housing conditions, animals were housed in a single, exclusive, air-conditioned room to provide a minimum of 15 air changes/hour. The environmental controls were set to maintain the temperature at around 22°C and the relative humidity within the range 50 to 60%, along with an approximate 12:12 h light/dark cycle automatically controlled. Food (Mucedola Standard GLP diet) and water were available ad libitum throughout the entire duration of the study. All animals were weighted on the day of the treatment.\nMice (n = 4/time point) received an intraperitoneal administration (i.p., 10 mL/kg) of RC-106 at 10 mg/kg. CD-1 male mice were exsanguinated under anesthesia (isoflurane) from the aorta at the following time points: 5, 10, 30, 120, 240, and 480 min. Blood samples were collected in tubes containing heparin, gently mixed and immediately placed on ice. Afterward, they have been centrifuged (3500 × g, at 4°C for 15 min), the obtained plasma has been collected and transferred to individually labeled tubes and frozen at -20°C until the analysis. Plasma samples were used for quantification of RC-106. […] The organ was homogenized using a Velp OV5 homogenizer with 20 mM ammonium formiate buffer in a ratio of 1 g of tissue per 10 mL of buffer.\n20 mg/mL stock solution (s.s.) of RC-106 was prepared by dissolving the compound in DMSO. 1 mL of 5% Tween80 in H2O was slowly added to 500 μL of s.s. under stirring. Then 8.5 mL of water was gently spiked to obtain the 1 mg/mL formulation of RC-106.\nStandard curves of RC-106 were prepared for plasma and pancreas homogenate, and analyzed together with each QC and unknown sample set. For the PK and pancreas distribution sample analysis, plasma and pancreas homogenate samples (50 μL) were spiked in 200 μL of IS in MeOH (0.1 μg/mL of RC-33), followed by 2 min vortex mixing. Samples were centrifuged and transferred in UFLC vials. 5 μL aliquots of the collected samples were injected into the LC-MS/MS system. Standard calibration graphs were constructed by linear least-squares regression analysis on the analyte/IS area ratio plotted against sample concentration. Calibration ranges were from 5 to 1000 ng/mL for plasma, and from 5 to 500 ng/mL for pancreas homogenate. Accuracy values were determined in triplicates at three different concentrations (high, medium, and low) in the range of linearity of the calibration curves.\nAnalyses were acquired on a Shimadzu AC20 UFLC system interfaced with an API 3200 Triple Quadrupole detector (AB Sciex). Data acquisition and control were performed using the Analyst^TM 6.1 (Applied Biosystems) Software. A Phenomenex Gemini-NX C18 (50 mm × 2 mm, 5 μm) column was selected to carry out the analytical evaluations. A gradient method was set up (Supplementary Table S1) and it provided the employment of water and methanol, both containing 0.1% of formic acid, at a flow rate of 0.3 mL/min. The LC eluate was directly introduced into the MS interface using the ESI in the positive ion mode. The MRM transitions m/z 181.2 were tracked (Supplementary Table S2)."}, "[4]": {"tested_on": "S2R", "parameters": "method as in Rui et al., 2016; Rossi et al., 2017", "settings": "ref Rui et al., 2016; Rossi et al., 2017; cited from earlier work"}}, "note": "Read-outs that look alike come from different tables or passages of the source."}
{"smiles": "C/C(=C\\CN1CCC(Cc2ccccc2)CC1)c1ccc2ccccc2c1", "note": "[RC-106, (E)-4-benzyl-1-(3-(naphthalen-2-yl)but-2-en-1-yl)piperidine]", "values": [{"measurement": "IC50", "setting": "[1]", "result": "33 to 57", "unit": "µM"}, {"measurement": "proteasome activity", "setting": "[2]", "result": "reduce proteasome activity in a dose dependent manner"}, {"measurement": "AUC(0-t)", "setting": "[3]; pancreas, 10 mg/kg, i.p., 10 mg/kg, read-out: AUC0-t, pancreas (converted)", "result": 28800, "unit": "ng·h/mL"}, {"measurement": "concentration at 5 min", "setting": "[3]; pancreas, 5 min after i.p. 10 mg/kg, read-out: pancreas C", "result": 25300, "unit": "ng/g"}, {"measurement": "concentration at 10 min", "setting": "[3]; pancreas, 10 min after i.p. 10 mg/kg, read-out: pancreas C", "result": 13900, "unit": "ng/g"}, {"measurement": "concentration at 30 min", "setting": "[3]; pancreas, 30 min after i.p. 10 mg/kg, read-out: pancreas C", "result": 11100, "unit": "ng/g"}, {"measurement": "concentration at 120 min", "setting": "[3]; pancreas, 120 min after i.p. 10 mg/kg, read-out: pancreas C", "result": 2710, "unit": "ng/g"}, {"measurement": "concentration at 240 min", "setting": "[3]; pancreas, 240 min after i.p. 10 mg/kg, read-out: pancreas C", "result": 2310, "unit": "ng/g"}, {"measurement": "concentration at 480 min", "setting": "[3]; pancreas, 480 min after i.p. 10 mg/kg, read-out: pancreas C", "result": 995, "unit": "ng/g"}, {"measurement": "Tmax", "setting": "[3]; pancreas, 10 mg/kg", "result": 5, "unit": "min"}, {"measurement": "Cmax", "setting": "[3]; pancreas, i.p., 10 mg/kg, read-out: Cmax, pancreas", "result": "25300 ± 5600", "unit": "ng/g"}, {"measurement": "Cmax", "setting": "[3]; pancreas, i.p., 10 mg/kg, read-out: Cmax, pancreas (molar)", "result": "~70", "unit": "µM"}, {"measurement": "half-life", "setting": "[3]; pancreas, i.p., 10 mg/kg, read-out: t1/2, pancreas", "result": 4, "unit": "h"}, {"measurement": "Kp", "setting": "[3]; pancreas/plasma, 10 mg/kg, i.p., 10 mg/kg, read-out: AUC0-t pancreas/AUC0-t plasma", "result": "~25"}, {"measurement": "S2R modulatory profile", "setting": "[4]", "result": "S2R agonist"}]}
